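Where inhibition never reached the appropriate level, the endpoint shown equals the highest concentration tested. Otherwise, values were interpolated linearly from a five-concentration, 48-hour dose response in 96-well plates. Here, GI50 denotes the concentration required for 50% inhibition of growth. TGI: concentration producing complete growth inhibition.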 Where only a bound is given, the exact number is not on record here.

Test systems include A498 renal; A549 NSCLC; M14 melanoma; NCI-H226 lung; NCI-H460 lung; OVCAR-3 ovarian; SNB-19 CNS; UO-31 renal; RXF 393 renal; TK-10 renal.
Holding throughout (assay): NCI-60 cell line screen, 48 h

For the compound `C[C@]12CC[C@@H]3c4ccc(Oc5nc(N6CC6)nc(N6CC6)n5)cc4CC[C@H]3[C@@H]1CCC2=O`, the GI50 in the assay with A498 renal was 1.88 µM; in the assay with A549 NSCLC, 1.5 µM; in the assay with M14 melanoma, 3.58 µM; in the assay with NCI-H226 lung, 3.23 µM; in the assay on NCI-H460 lung, 0.517 µM; with OVCAR-3 ovarian, 3.86 µM. Also, the GI50 is 7.25 µM in the assay on SNB-19 CNS and 2.68 µM with UO-31 renal. Also, the TGI was 5.79 µM with A498 renal; 12.8 µM in the assay with A549 NSCLC; 21.7 µM in the assay on M14 melanoma; 30.8 µM with NCI-H226 lung; 2.79 µM in the assay with NCI-H460 lung; 15.3 µM with OVCAR-3 ovarian. Also, the figures for the TGI with SNB-19 CNS and with UO-31 renal were 21.5 µM and 13.2 µM, respectively.

Regarding `CC(C)(C)C1=CC(=CC=C2C=CN(CCCCCCCCCCCO)C=C2)C=C(C(C)(C)C)C1=O`, the TGI in the assay on A498 renal stood at 7.3 µM; in the assay with A549 NSCLC, 3.58 µM; in the assay with M14 melanoma it was 3.57 µM; in the assay on NCI-H460 lung it was 4.55 µM; with OVCAR-3 ovarian, 2.87 µM; with RXF 393 renal it was 2.47 µM. For the same compound, the TGI turned out to be 3.15 µM in the assay with SNB-19 CNS, 3.67 µM in the assay on TK-10 renal and 3.67 µM in the assay on UO-31 renal.

Take `O=S(O)CCCCSSCCCCSSCCCCS(=O)O`: the TGI with A498 renal was above 100 µM; with A549 NSCLC it was above 100 µM; with M14 melanoma it was 26.5 µM; in the assay with NCI-H460 lung, above 100 µM; with OVCAR-3 ovarian, above 100 µM; in the assay on RXF 393 renal it was above 100 µM. The figures for the TGI with SNB-19 CNS, in the assay on TK-10 renal and in the assay on UO-31 renal were above 100 µM, 91.4 µM and above 100 µM, respectively.

As to `Cn1cc(-c2csc(-c3cccc(F)c3)n2)c2cccnc21`, the GI50 in the assay on A549 NSCLC was 20.9 µM; in the assay on M14 melanoma it was 15.3 µM; in the assay on NCI-H226 lung, 19.4 µM; in the assay on NCI-H460 lung it was 17 µM; with OVCAR-3 ovarian it was 19 µM; with RXF 393 renal, 16 µM. In addition, the GI50 with SNB-19 CNS is 20.1 µM; in the assay on TK-10 renal it was 17.9 µM; in the assay on UO-31 renal it was 15.9 µM. Moreover, the TGI amounted to 47.4 µM in the assay on A549 NSCLC; 29.5 µM with M14 melanoma; 51.1 µM in the assay with NCI-H226 lung; 34.7 µM with NCI-H460 lung; 33.9 µM in the assay with OVCAR-3 ovarian; 34.4 µM in the assay with RXF 393 renal. For the same compound, the figures for the TGI with SNB-19 CNS, with TK-10 renal and in the assay on UO-31 renal were 54.4 µM, 38.1 µM and 50.6 µM, respectively.

With `O=C(/C=C/c1ccccc1Cl)c1ccccc1Cl`, the TGI with A498 renal was above 100 µM; with A549 NSCLC, 61.5 µM; with M14 melanoma it was 47.2 µM; in the assay on NCI-H226 lung, above 100 µM; in the assay with NCI-H460 lung, 36 µM; with OVCAR-3 ovarian, 33.9 µM. Further, the TGI was 32.8 µM with SNB-19 CNS, above 100 µM with TK-10 renal and 34.3 µM in the assay with UO-31 renal.

As to `CC(=O)SCCC1c2[nH]c3ccccc3c2CCN1O` (centres undefined), the TGI with A549 NSCLC, in the assay with M14 melanoma, in the assay with NCI-H460 lung, with OVCAR-3 ovarian, in the assay on RXF 393 renal and with SNB-19 CNS was above 100 µM in each case. For the same compound, the TGI in the assay with TK-10 renal and in the assay with UO-31 renal was above 100 µM throughout.

Consider `Cc1cccc(C(C)(C)C)c1NC(=O)CCc1n[nH]c(=S)o1`, for which the TGI in the assay with A498 renal is above 100 µM; in the assay on A549 NSCLC, above 100 µM; with M14 melanoma, above 100 µM; in the assay with NCI-H226 lung it was 0.832 µM; in the assay with NCI-H460 lung, above 100 µM; in the assay on OVCAR-3 ovarian, above 100 µM. In addition, the TGI in the assay with SNB-19 CNS, with TK-10 renal and in the assay on UO-31 renal was above 100 µM in each case.

For `CCN(CC)C(=O)C/C(C)=N/NC(=O)c1ccncc1`, the TGI in the assay with A549 NSCLC, in the assay on M14 melanoma, with NCI-H226 lung, in the assay with NCI-H460 lung, in the assay on OVCAR-3 ovarian and in the assay with RXF 393 renal was above 100 µM throughout. The TGI in the assay with TK-10 renal and in the assay on UO-31 renal was above 100 µM throughout.

Consider `COc1cc([N+](=O)[O-])ccc1NC(=O)C(F)(F)F`, for which the TGI with A498 renal, in the assay with A549 NSCLC, in the assay with M14 melanoma, with NCI-H226 lung, with NCI-H460 lung and in the assay on OVCAR-3 ovarian was above 100 µM each time. Further, the TGI in the assay with SNB-19 CNS, in the assay on TK-10 renal and with UO-31 renal was above 100 µM each time.

For `COc1ccc(C(=O)O)c(Cc2cccc3ccccc23)c1`, the TGI with A549 NSCLC, in the assay on M14 melanoma, in the assay with NCI-H226 lung, in the assay on NCI-H460 lung, in the assay with OVCAR-3 ovarian and with RXF 393 renal was above 100 µM in each case. For the same compound, the TGI in the assay with SNB-19 CNS, in the assay on TK-10 renal and in the assay with UO-31 renal was above 100 µM throughout.

`CC#CC(=O)Nc1ccccc1CC(c1c[nH]c2ccccc12)c1c[nH]c2ccccc12`: the TGI with A549 NSCLC worked out at 57.5 µM; in the assay with M14 melanoma, 29.7 µM; in the assay on NCI-H226 lung, 32.6 µM; in the assay with OVCAR-3 ovarian, 49.6 µM; in the assay with SNB-19 CNS, 45.6 µM; in the assay on TK-10 renal it was 92.3 µM. The TGI in the assay with UO-31 renal worked out at 25.4 µM.

As for `COc1cc2c3c(n(CCCCl)c(=O)c2cc1OC)-c1ccccc1C3=O`, the GI50 in the assay with A549 NSCLC was above 100 µM; in the assay on M14 melanoma it was 5.96 µM; in the assay with NCI-H460 lung it was 3.66 µM; in the assay with OVCAR-3 ovarian it was 10.6 µM; in the assay with SNB-19 CNS, above 100 µM; in the assay with TK-10 renal, 19.6 µM. Moreover, in the assay with UO-31 renal, the GI50 is above 100 µM. Also, the TGI in the assay with A549 NSCLC was above 100 µM; with M14 melanoma, above 100 µM; with NCI-H460 lung, above 100 µM; in the assay on OVCAR-3 ovarian, 54.8 µM; in the assay with SNB-19 CNS, above 100 µM; in the assay with TK-10 renal it was 68.6 µM. Moreover, the TGI with UO-31 renal is above 100 µM.

On to `CCCCn1c(-c2ccc(C(=O)O/N=C(\N)c3ccc(OC)cc3)cc2)nc(-c2ccccc2)c1-c1ccccc1`, for which the GI50 is 1.21 µM in the assay on A549 NSCLC; 3.07 µM with M14 melanoma; 1.84 µM in the assay on NCI-H460 lung; 1.64 µM in the assay on RXF 393 renal; 1.91 µM with SNB-19 CNS; 1.76 µM in the assay on TK-10 renal. Moreover, the GI50 with UO-31 renal was 0.458 µM. The TGI in the assay with A549 NSCLC was 3.75 µM; in the assay on M14 melanoma, above 100 µM; with NCI-H460 lung it was 3.87 µM; in the assay on RXF 393 renal, 3.24 µM; in the assay with SNB-19 CNS it was 5.01 µM; in the assay with TK-10 renal, 3.38 µM. This compound yielded a TGI with UO-31 renal of 1.65 µM.

The record behind these values is PubChem BioAssay (NCI).
